# Laboratory results published in patent US20040248766A1, “Selective inhibition of intracellular amyloid-beta neurotoxicity in human neurons” (priority 2001, published 2004).
# Several values for one entry are separate records, joined by “and”; a condition that tells them apart may be missing. Equal values may be shown once. Entries after “also recorded” stand apart in the source; their conditions may differ.
# Legend:
# [1] = tested on: Aβ1-42-mediated neuronal cell death; experiment: Inhibition of Aβ1-42-mediated neuronal cell death in Aβ1-42-microinjected neurons, TUNEL; type: cell-based, human; conditions: 20 mM, 1 hour pre-incubation, 24 hours
# Description: cDNA Clones. Human Bcl-2 cDNA, Bax α cDNA, and APP695 cDNA were cloned into pCep4β (Invitrogen Canada, Burlington, ON, Canada). The p53 wild type and p53R273H dominant negative cDNA may be cloned in the pCMV-NEO vector. These cDNAs were purified through GlassMAXTM (Gibco-BRL, Rockville, Mass.) and diluted at 30 ng/μl in PBS before injection.
# Neutralizing Bax antibodies. Monoclonal anti-Bax 6A7 (amino acids 12-24: Pharmingen, San Diego, Calif.) and 2D2 (amino acids 3-16: Trevigen, Gaithersburg, Md.), polyclonal anti-Bax N-20 (Santa Cruz Biotechnology, Santa Cruz, Calif.), monoclonal anti-APP 22C11 (Roche Molecular Biochemicals, Laval, PQ, Canada), mouse IgG or rabbit sera were diluted at 50 μg/ml (for 6A7, 2D2, mouse IgG and 22C11) or 25 μg/ml (for polyclonal anti-Bax and rabbit sera) in PBS before use. A toxicity curve was done to determine this concentration as the highest non-toxic concentration that can be injected in neurons.
# (§1) Microinjection. Thin-walled Borosilicate glass capillaries (OD 1.0 mm, ID 0.5 mm) with microfilament (MTW1OOF-4, World Precision Instrument, Sarasota, Fla.) were pulled with a Flaming/Brown Micropipefte Puller (β-87, Sutter, Novato, Calif.) to obtain injection needles with a tip diameter of ˜0.5 μm. Microinjection was performed in the cytosol of each cell using the Eppendorf Microinjector 5246 (Hamburg, Germany) and Burleigh Micromanipulator MIS-5000 (Victor, N.Y.). Human neurons were injected with 25 pl/shot at an injection pressure of 100 hPa, a compensation pressure of 50 hPa, and an injection time of 0.1 s. Human astrocytes, M17, NT2 and La—N-1 cells were injected with 8 pl/shot at an injection pressure of 50 hPa, a compensation pressure of 30 hPa and an injection time of 0.1 s.
# (§2) Measurement of neuronal apoptosis. Cells were fixed in freshly prepared 4% paraformaldehyde/4% sucrose for 20 minutes at room temperature and permeabilized in 0.1% Triton X-100, 0.1% sodium citrate on ice for 2 minutes. Terminal deoxynucleotidyl transferase-mediated dUTP nick end labeling (TUNEL) was performed using the In Situ Cell Death Detection Kit I as described by the manufacturer (Roche Molecular Biochemicals). The percentage of cell death was determined as the ratio of the number of DTR-TLUNEL-double-positive cells over the total number of DIR-positive cells.
# Treatment with caspase inhibitors, cycloheximide, actinomycin D. Caspase pan inhibitor, Z-Valine-Alanine-Aspartic acid-fluoromethylketone (Z-VAD-fmk) (Biomol, Plymounth Meeting, PA); caspase-6 inhibitor, Z-Valine-Glutamic acid-Isoleucine-Aspartic acid-fmk (Z-VEID-fnk); caspase-3 inhibitor, Z-Aspartic acid-Glutamic acid-Valine-Aspartic acid-fmk (Z-DEVD-fmk); and caspase-8 inhibitor, Z-Isoleucine-Glutamic acid-Threomine-Aspartic acid-fmk (Z-IETD-fmk) (Sigma, Oakville, ON, Canada) were dissolved in 100% dimethylsulphoxide (DMSO, Sigma) at 5 mM and were diluted at 5 μM into culture medium immediately before use. The medium was changed every 48 hours.
# Stock solutions of 5 mg/ml cycloheximide and 200 IM actinomycin D were made in sterile distilled water and diluted to 5 μg/ml for cycloheximide and 5 μM for actinomycin D in the culture medium immediately before use.
# Dextran Texas Red (DTR) was co-injected with Aβ1-42 to identi the injected cells from the non-injected cells. The experiment was done on 200 microinjected neurons per preparation of neurons and on three independent neuron preparations.
# human neurons [2] = experiment: Neuronal cell death caused by the agent alone (without Aβ1-42); type: cell-based; conditions: 20 mM, DTR-injected neurons, 24 hours
# Description: as §2, with “Biochemicals).” for “Biochemicals). The percentage of cell death was determined as the ratio of the number of DTR-TLUNEL-double-positive cells over the total number of DIR-positive cells.”
# [3] = tested on: baby hamster kidney (BHK) cell lines; experiment: Microinjection of Aβ1-42 into BHK cells, TUNEL; type: cell-based; conditions: 24 hours
# [4] = tested on: human teratocarcinoma NT2; experiment: Microinjection of Aβ1-42 into NT2 cells, TUNEL; type: cell-based; conditions: NT2, up to 8×10^−19 moles injected, 24 hours
# Description: (§3) Human neuroblastoma M17 cells were cultured on ACLAR™ coverslips at 1×10^6 cells/ml in OPTI-MEM (Gibco-BRL) containing 5% FBS. Microinjection was performed when the cells reached 70-80% confluence on the coverslips. Human teratocarcinoma NT2 (Stratagene, La Jolla, Calif.) and neuroblastoma La-N-1 cells were cultured on ACLAR™ coverslips at 1×10^6 cells/ml in DMEM (Gibco-BRL) containing 10% FBS. Microinjection was performed when the cells were 50% confluent.
# as §1, with “Human astrocytes, M17, NT2 and La—N-1 cells were injected with 8 pl/shot at an injection pressure of 50 hPa, a compensation pressure of 30 hPa and an injection time of 0.1 s.” left out
# (§4) Measurement of neuronal apoptosis. […] The percentage of cell death was determined as the ratio of the number of DTR-TLUNEL-double-positive cells over the total number of DIR-positive cells.
# [5] = determined in a medium or extracellularly; cited from earlier work
# primary human astrocytes = experiment: Microinjection of Aβ1-42 into primary human astrocytes, TUNEL/Hoechst; type: cell-based; conditions: up to 100 nM / 8×10^−19 moles injected, 24 hours
# Description: Cell cultures. Primary cultures of human neurons and astrocytes were prepared as described in LeBlanc, A., J. Neurosci. 15:7837-46 (1995), incorporated herein by reference. Fresh brain tissues were dissociated with 0.25% trypsin (Gibco-BRL) in phosphate buffered saline (PBS) at 37° C. for 15 minutes. The trypsin was inactivated. by adding 10% decomplemented fetal bovine serum (FBS, HyClone, Logan, Utah.) to the mixture. The dissociated tissues were triturated in 0.1 mg/ml DNaseI (Gibco-BRL) to obtain a homogeneous mixture. The mixture was filtered successively through 130 and 70 gm filters and centrifuged at […] for 10 minutes at 10° C. to pellet the cells. The cell pellet was washed once with PBS and once with minimal essential media (MEM, Gibco-BRL) in Earle's balanced salt solution containing 0.225% sodium bicarbonate, 1 mM sodium pyruvate, 2 mM L-glutamine, 0.1% dextrose, 1×antibiotic Pen-Strep (all from Gibco-BRL) and 5% decomplemented FBS. […]
# Measurement of neuronal apoptosis. […] The percentage of cell death was determined as the ratio of the number of DTR-TLUNEL-double-positive cells over the total number of DIR-positive cells. […]
# Cell death was identified by TUNEL staining and nuclei detected with Hoechst staining. […] The faint green fluorescence detected in these cells is the results of bleed-through from the red DTR fluorescence on the microscope.
# NIH 3T3 fibroblasts = experiment: Microinjection of Aβ1-42 into NIH 3T3 fibroblasts, TUNEL; type: cell-based, mice; conditions: 24 hours
# human neurons [6] = experiment: Exposure of human neurons to extracellular Aβ peptides, TUNEL and propidium iodide; type: cell-based; conditions: 10 μM extracellular, 24 hours
# Description: To test if this particular batch of peptide might be neurotoxic, neurons were treated with 10 μM of peptides for 24 hours.
# [7] = tested on: human neuroblastoma La-N-1; experiment: Microinjection of Aβ1-42 into La-N-1 cells, TUNEL; type: cell-based; conditions: La-N-1, up to 8×10^−19 moles injected, 24 hours
# Description: as §3
# as §1, with “Human astrocytes, M17, NT2 and La—N-1 cells were injected with 8 pl/shot at an injection pressure of 50 hPa, a compensation pressure of 30 hPa and an injection time of 0.1 s.” left out
# as §4
# primary human neurons = experiment: Microinjection of Aβ peptides into the cytosol of primary human neurons, cell death by TUNEL; type: cell-based; conditions: for number of molecules toxic (as few as / as little as): microinjected neurons
# Description: Cell cultures. Primary cultures of human neurons and astrocytes were prepared as described in LeBlanc, A., J. Neurosci. 15:7837-46 (1995), incorporated herein by reference. Fresh brain tissues were dissociated with 0.25% trypsin (Gibco-BRL) in phosphate buffered saline (PBS) at 37° C. for 15 minutes. The trypsin was inactivated. by adding 10% decomplemented fetal bovine serum (FBS, HyClone, Logan, Utah.) to the mixture. The dissociated tissues were triturated in 0.1 mg/ml DNaseI (Gibco-BRL) to obtain a homogeneous mixture. The mixture was filtered successively through 130 and 70 gm filters and centrifuged at 15,000 g for 10 minutes at 10° C. to pellet the cells. The cell pellet was washed once with PBS and once with minimal essential media (MEM, Gibco-BRL) in Earle's balanced salt solution containing 0.225% sodium bicarbonate, 1 mM sodium pyruvate, 2 mM L-glutamine, 0.1% dextrose, 1×antibiotic Pen-Strep (all from Gibco-BRL) and 5% decomplemented FBS.
# The cells were plated on poly-L-lysine-coated ACLARTM (Cat. No.: 33C; thickness: 0.5 mm; Allied Chemical, Minneapolis, Minn.) coverslips at a density of 3×10^6 cells/ml. Neurons and astrocytes were incubated at 37° C. in the MEM media with 5% CO2, and the media were changed every 48 hours. For neuron culture, 1 mM fluorodeoxyuridine (FDU, Gibco-BRL) was applied for the first 3 feedings and after that, used weekly to prevent proliferation of dividing cells. […] Microinjection or treatment was performed 10 days after plating for neurons and astrocytes.
# Aβ peptides. Aβ peptides (Bachem, King of Prussia, Pa.) were dissolved in sterile distilled water at 25 μM and incubated at 37° C. for 5 days. The peptides stock solutions were frozen and diluted in 1×PBS immediately before microinjection. […] A 250 μl aliquot was diluted to 0.25 μM and immediately frozen at −20° C. in aliquots of 50 μl. The remaining solution was incubated at 37° C. in Eppendorf tubes with continuous mixing by inversion. After incubation, the samples were removed, vortexed, sonicated twice for 1 minute in a bath type sonicator (ELMA GmbH & Co. KG, Germany) and frozen at −20° C. in […]. Each aliquot was used once to avoid possible effects of freeze and thaw cycles.
# as §1
# The diluted peptides were injected at the indicated concentrations with 100 μg/ml dextran Texas Red (DTR) (MW: 3000, Molecular Probes, Eugene, Oreg.) as a fluorescent marker to recognize the injected cells.
# as §2, with “Biochemicals).” for “Biochemicals). The percentage of cell death was determined as the ratio of the number of DTR-TLUNEL-double-positive cells over the total number of DIR-positive cells.”
# human neuroblastoma M17 = experiment: Microinjection of Aβ1-42 into M17 cells, TUNEL; type: cell-based; conditions: M17, up to 8×10^−19 moles injected, 24 hours
# Description: as §3
# as §1, with “Human astrocytes, M17, NT2 and La—N-1 cells were injected with 8 pl/shot at an injection pressure of 50 hPa, a compensation pressure of 30 hPa and an injection time of 0.1 s.” left out
# as §4
molecule,measurement,setting,value
[Cl-].[Li+] [LiCl2],protection against intracellular Aβ1-42 toxicity (in words),[1],efficiently protected
same,cell death with agent and DTR only (in words),human neurons [2],did not undergo cell death
"Aβ1-42: 42 amino acid amyloid β peptide (SEQ ID NO: 2), aged 5 days at 37° C.",intracellular toxicity (in words),[3],not observed to be toxic; also recorded: fails to induce cell death
same,intracellular toxicity (in words),[4],not observed to be toxic; also recorded: completely resist; also recorded: fails to induce cell death
same,intracellular toxicity (in words),[4]; listed as Aβ42,remain resistant
same,toxic concentration known in the art,[5],10 to 100 µM
same,intracellular toxicity (in words),primary human astrocytes,"not observed to be toxic; also recorded: completely resist; also recorded: do not show any sign of condensed chromatin by Hoechst staining, nor positive nuclei TUNEL staining"
same,intracellular toxicity (in words),primary human astrocytes; listed as Aβ42,remain resistant
same,intracellular toxicity (in words),NIH 3T3 fibroblasts,not observed to be toxic; also recorded: fails to induce cell death
same,toxicity of extracellular peptide (in words),human neurons [6],"do not undergo cell death; also recorded: Neither extracellular Aβ1-40, Aβ1-42, or Aβ40-1 are toxic"
same,intracellular toxicity (in words),[7],not observed to be toxic; also recorded: completely resist; also recorded: fails to induce cell death
same,intracellular toxicity (in words),[7]; listed as Aβ42,remain resistant
same,cell death of microinjected neurons,"primary human neurons; 10 nM aged peptide, 48 hours after injection",78%
same,amount delivered into the neuron cytosol sufficient to induce rapid neuronal death,primary human neurons; 25 pl/shot of 10 nM,2.5e-19 mol
same,apoptosis of microinjected neurons,"primary human neurons; 25×10^−21 moles intracellular, within 24 hours after injection",70%
same,cell death of microinjected neurons,primary human neurons; 100-fold dilution in the amount injected (25 pl/shot of 10 nM),50%
same,number of molecules giving 50% toxicity,primary human neurons; based on the Avogadro number,1505.5 molecules/neuron
same,number of molecules injected giving maximal toxicity,primary human neurons; based on the Avogadro number,"150,055 molecules"
same,toxic concentration of injected peptide in the cytosol,primary human neurons; calculated from injected moles and cytosolic volume 2.5 nL,1 pM and 1 to 100 pM
same,number of molecules toxic (as few as / as little as),primary human neurons,1500 molecules
same,number of molecules toxic (as few as / as little as),primary human neurons; listed as Aβ42,150.5 molecules
same,intracellular toxicity to human neurons (in words),primary human neurons; peptide microinjected into cytosol,rapidly induces cell death
same,reduction of concentration that still exerts significant toxicity,"primary human neurons; relative to 25×10^−21 moles/cell, FIG. 1C",100 to 1000 fold
same,intracellular toxicity (in words),human neuroblastoma M17,not observed to be toxic; also recorded: completely resist; also recorded: fails to induce cell death
same,intracellular toxicity (in words),human neuroblastoma M17; listed as Aβ42,remain resistant
